Source: US7662842B2, “Thiazolidinone amides, thiazolidine carboxylic acid amides, and serine amides, including polyamine conjugates thereof, as selective anti-cancer agents” (Ohio State Univesity Research Foundation, priority 2003, dated 2010)

Key:
SKMEL-188 melanoma cells = assay: DNA content analysis by flow cytometry; assay type: cell-based; conditions: SKMEL-188, 48 hours, 6 μM and 60 μM, FIG. 11B, Hydrochloride
Procedure: SKMEL-188 melanoma cells were incubated with Compound 4(R) at 60 μM for 48 hours. FIG. 11A is a graph showing the cytotoxicity as measured by LDH release from the cells following treatment. Data is presented as mean±SEM (n=8), *p<0.05, **p<0.005. FIG. 11B is a pair of graphs that show the DNA content, as measured by flow cytometry, of cells that were exposed to control (left) and Compound 4(R) (right).
DNA Content Analysis: SKMEM-188 cells were seeded in 10 cm Petri dishes at a density of 10^6 cell per dish. At 12 hours, the medium was changed to 5% FBS with different concentrations of the testing compound. Cells were incubated for 48 hours, and media with compounds were changed every 24 hours. Cells were trypsinized, washed with PBS, and fixed in ice-cold 70% ethanol. After fixing, the ethanol was removed by centrifugation, and cells were incubated in phosphate-citrate buffer (0.2M Na2HPO4, 4 mM citric acid, pH=7.8) for 1 hour. […] Samples were shaken for 30 minutes, and analyzed with FACS Caliber cytometer (Becton Dickinson, San Diego, Calif.). Data was analyzed and graphs were prepared using Modfit 2.0 (Verity Sofware House, Topsham, Me.).
To examine more closely the cell death induced by the tested compounds, LDH release was measured by calorimetric assay and DNA content was analyzed by flow cytometry. […]

[1] = test system: SKMEL-188 and WM-164 cell lines; assay: SRB assay, statements on both melanoma cell lines; assay type: cell-based
Procedure: Louis, Mo.). WM-164 cells (gift of Dr. Meenhard Herlyn, Wistar Inst., Philadelphia, Pa.) and human dermal fibroblasts (Cascade Biologics, Inc., Portland, Oreg.) were cultured in DMEM medium (Cellgro Mediatech, Inc.) supplemented with 5% fetal bovine serum, 1% antibiotic.antimycotic mixture and bovine insulin ([…], Sigma-Aldrich, Inc.). Human dermal fibroblasts were used as a control to examine the effects of compounds on stromal environment. Thus, the effect of the various compounds on melanoma cells versus fibroblasts would document their potential selectivity. Sulforhodamine B Assay: Cells were seeded into 96-well plates at 5000 cells/well. After 12 hours, media were changed and serial dilutions of compounds were added. Cells were incubated with each compound for 48 hours. Fresh media containing the test compound were changed ever 24 hours. Thereafter, total cell protein corresponding to cell numbers (both viable and non-viable cells) were measured using the sulforhodamine B (SRB) assay according to manufacturer's protocol (Sigma-Aldrich, Inc.) (Rubinstein et al., “Comparison of in vitro Anticancer Drug-screening Data Generated with a Tetrazolium Assay Versus a Protein Assay Against a Diverse Panel of Human Tumor Cell Lines,” J. Natl. Cancer Inst. 82:1113-1118 (1990); Dothager et al., “Synthesis and Identification of Small Molecules that Potently Induce Apoptosis in Melanoma Cells Through GI Cell Cycle Arrest,” J. Am. Chem. Soc. 127:8686-8696 (2005), each of which is hereby incorporated by reference in its entirety). Briefly, cells were fixed with trichloracetic acid, washed and incubated with sulforhodamine B for 30 minutes. After another wash, dye incorporated into the cells was solubilized and measured using a plate reader at 565 nm. Statistical Analysis: Data is presented as mean±SEM (n=6-8). […] Statistical analyses were performed with Student's t-test (*p<0.05; **p<0.005). […] DTIC and Taxol were assayed in the same way for comparison and served as internal quality controls in the different batches of assay. For comparison, the activities of 5R and 5S were measured.

IC50 ([1]; 48 h, read-out: IC50 against both melanoma cell lines): ~500 nM
Compound: CCCCCCCCCCCCCCNC(=O)[C@@H]1CSC(c2ccccc2)N1.Cl (mixture of isomers) [Compound 4, (2RS, 4R)-2-Phenylthiazolidine-4-carboxylic acid tetradecylamide Hydrochloride]
DNA content / mode of cell death (SKMEL-188 melanoma cells; listed as 4 (R enantiomer)): causes necrotic cell death
DNA content / mode of cell death (SKMEL-188 melanoma cells; listed as 4R): disappearance of peaks corresponding to viable, proliferating cells
Selectivity against both neoplastic cell lines (versus fibroblasts) ([1]; melanoma cells versus fibroblasts): over 10 fold
